{"source": "ChEMBL document CHEMBL4765227", "about": "“Hit to lead optimization of a series of N-[4-(1,3-benzothiazol-2-yl)phenyl]acetamides as monoacylglycerol lipase inhibitors with potential anticancer activity” (Eur J Med Chem, 2016)", "assay_type_in_all_cases": "functional", "details_in_all_cases": "read-out: GI", "key": {"K562": {"test_system": "K562", "assay": "Growth inhibition of human K562 cells at 10 uM incubated for 48 hrs by sulforhodamine B assay relative to control"}, "NCI-H460": {"test_system": "NCI-H460", "assay": "Growth inhibition of human NCI-H460 cells at 10 uM incubated for 48 hrs by sulforhodamine B assay relative to control"}, "SK-MEL-28": {"test_system": "SK-MEL-28", "assay": "Growth inhibition of human SK-MEL-28 cells at 10 uM incubated for 48 hrs by sulforhodamine B assay relative to control"}, "SK-MEL-5": {"test_system": "SK-MEL-5", "assay": "Growth inhibition of human SK-MEL-5 cells at 10 uM incubated for 48 hrs by sulforhodamine B assay relative to control"}, "EKVX": {"test_system": "EKVX", "assay": "Growth inhibition of human EKVX cells at 10 uM incubated for 48 hrs by sulforhodamine B assay relative to control"}, "A498": {"test_system": "A498", "assay": "Growth inhibition of human A498 cells at 10 uM incubated for 48 hrs by sulforhodamine B assay relative to control"}, "TK-10": {"test_system": "TK-10", "assay": "Growth inhibition of human TK-10 cells at 10 uM incubated for 48 hrs by sulforhodamine B assay relative to control"}, "CCRF-CEM": {"test_system": "CCRF-CEM", "assay": "Growth inhibition of human CCRF-CEM cells at 10 uM incubated for 48 hrs by sulforhodamine B assay relative to control"}, "T47D": {"test_system": "T47D", "assay": "Growth inhibition of human T47D cells at 10 uM incubated for 48 hrs by sulforhodamine B assay relative to control"}, "BT-549": {"test_system": "BT-549", "assay": "Growth inhibition of human BT-549 cells at 10 uM incubated for 48 hrs by sulforhodamine B assay relative to control"}, "UACC-62": {"test_system": "UACC-62", "assay": "Growth inhibition of human UACC-62 cells at 10 uM incubated for 48 hrs by sulforhodamine B assay relative to control"}, "SK-MEL-2": {"test_system": "SK-MEL-2", "assay": "Growth inhibition of human SK-MEL-2 cells at 10 uM incubated for 48 hrs by sulforhodamine B assay relative to control"}, "SNB-19": {"test_system": "SNB-19", "assay": "Growth inhibition of human SNB-19 cells at 10 uM incubated for 48 hrs by sulforhodamine B assay relative to control"}, "SK-OV-3": {"test_system": "SK-OV-3", "assay": "Growth inhibition of human SK-OV-3 cells at 10 uM incubated for 48 hrs by sulforhodamine B assay relative to control"}, "MDA-MB-435": {"test_system": "MDA-MB-435", "assay": "Growth inhibition of human MDA-MB-435 cells at 10 uM incubated for 48 hrs by sulforhodamine B assay relative to control"}, "IGROV-1": {"test_system": "IGROV-1", "assay": "Growth inhibition of human IGROV-1 cells at 10 uM incubated for 48 hrs by sulforhodamine B assay relative to control"}}}
{"smiles": "O=C(Cn1nnc2ccccc21)Nc1ccc(-c2nc3ccccc3s2)cc1", "values": [{"measurement": "inhibition of growth at 10 µM", "setting": "K562", "result": 44.8, "unit": "%"}, {"measurement": "inhibition of growth at 10 µM", "setting": "NCI-H460", "result": 17, "unit": "%"}, {"measurement": "inhibition of growth at 10 µM", "setting": "SK-MEL-28", "result": -1.87, "unit": "%"}, {"measurement": "inhibition of growth at 10 µM", "setting": "SK-MEL-5", "result": 25.7, "unit": "%"}, {"measurement": "inhibition of growth at 10 µM", "setting": "EKVX", "result": 21.8, "unit": "%"}, {"measurement": "inhibition of growth at 10 µM", "setting": "A498", "result": 14.9, "unit": "%"}, {"measurement": "inhibition of growth at 10 µM", "setting": "TK-10", "result": 5.23, "unit": "%"}, {"measurement": "inhibition of growth at 10 µM", "setting": "CCRF-CEM", "result": 30.3, "unit": "%"}, {"measurement": "inhibition of growth at 10 µM", "setting": "T47D", "result": 33.1, "unit": "%"}, {"measurement": "inhibition of growth at 10 µM", "setting": "BT-549", "result": 13.5, "unit": "%"}, {"measurement": "inhibition of growth at 10 µM", "setting": "UACC-62", "result": 2.9, "unit": "%"}, {"measurement": "inhibition of growth at 10 µM", "setting": "SK-MEL-2", "result": -0.54, "unit": "%"}, {"measurement": "inhibition of growth at 10 µM", "setting": "SNB-19", "result": -2.9, "unit": "%"}, {"measurement": "inhibition of growth at 10 µM", "setting": "SK-OV-3", "result": -4.22, "unit": "%"}, {"measurement": "inhibition of growth at 10 µM", "setting": "MDA-MB-435", "result": 4.09, "unit": "%"}, {"measurement": "inhibition of growth at 10 µM", "setting": "IGROV-1", "result": 2.46, "unit": "%"}]}
